Measurements: patent publication US11739074B2, “Ras inhibitors” (Revolution Medicines, Inc., priority 2019, dated 2023)
Where two headings read alike, the source gives them in different places.

What was measured:
Format in all cases: cell-based
AsPC-1 (K-Ras G12D) [1] = assay: Potency assay: pERK in AsPC-1 cells; details: Homo sapiens
AsPC-1 (K-Ras G12D) [2] = assay: CellTiter-Glo cell viability assay, AsPC-1; details: Homo sapiens, ASPC1, 120 h
Method in brief: (§1)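 Luminescence from CellTiter-Glo serves as the viability read-out after cells are treated with compound for 5 days. Each well's signal is divided by the DMSO average and multiplied by 100, and curves are fitted by four-parameter logistic regression.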

NCI-H358 (K-Ras G12C) = assay: CellTiter-Glo cell viability assay, H358; details: Homo sapiens, NCI-H358, 120 h
Method in brief: as §1

[3] = ASPC1, AsPC-1 cells, K-Ras G12D, read-out: pERK EC50 (AsPC-1 KRAS G12D)
[4] = AsPC-1, K-Ras G12D, 5-day treatment, read-out: AsPC-1 Cell Viability IC50
[5] = NCI-H358, K-Ras G12C, 5-day treatment, read-out: H358 Cell Viability IC50
[6] = ASPC1, read-out: pERK EC50 (AsPC-1 KRAS G12D)
[7] = read-out: AsPC-1 Cell Viability IC50, AsPC-1, K-Ras G12D, 5-day treatment
[8] = read-out: H358 Cell Viability IC50, NCI-H358, K-Ras G12C, 5-day treatment

Row | Compound | EC50 (AsPC-1 (K-Ras G12D) [1]; [3]) [nM] | IC50 (AsPC-1 (K-Ras G12D) [2]; [4]) [nM] | IC50 (NCI-H358 (K-Ras G12C); [5]) [nM] | EC50 (AsPC-1 (K-Ras G12D) [1]; [6]) [nM] | IC50 (AsPC-1 (K-Ras G12D) [2]; [7]) [nM] | IC50 (NCI-H358 (K-Ras G12C); [8]) [nM]
1 | CCn1c(-c2cccnc2[C@H](C)OC)c2c3cc(ccc31)-c1cc(O)cc(c1)C[C@H](NC(=O)[C@H](C(C)C)N(C)C(=O)[C@]1(C)CCCN1C(=O)[C@H]1CN1)C(=O)N1CCC[C@H](N1)C(=O)OCC(C)(C)C2 [Compound 243] | < 5000 | 100 to 1000 | 100 to 1000 |  |  | 
2 | CCn1c(-c2cccnc2[C@H](C)OC)c2c3cc(ccc31)-c1cc(O)cc(c1)C[C@H](NC(=O)[C@H](C(C)C)N(C)C(=O)[C@@H]1CO[C@H](C)CN1C(=O)[C@H]1CN1)C(=O)N1CCC[C@H](N1)C(=O)OCC(C)(C)C2 [Compound 248] | < 5000 | 100 to 1000 | 10 to 100 |  |  | 
3 | CCn1c(-c2cccnc2[C@H](C)OC)c2c3cc(ccc31)-c1cc(O)cc(c1)C[C@H](NC(=O)[C@H](C(C)C)N(C)C(=O)[C@@H]1CO[C@H](C)CN1C(=O)[C@@H]1CN1)C(=O)N1CCC[C@H](N1)C(=O)OCC(C)(C)C2 [Compound 249] | < 5000 | 10 to 100 | 10 to 100 |  |  | 
4 | CCn1c(-c2cccnc2[C@H](C)OC)c2c3cc(ccc31)-c1cc(O)cc(c1)C[C@H](NC(=O)[C@H](C(C)C)N(C)C(=O)CN(C)C(=O)[C@@]1(C)CN1)C(=O)N1CCC[C@H](N1)C(=O)OCC(C)(C)C2 [Compound 256] |  |  |  | < 5000 | 100 to 1000 | 10 to 100
5 | CCn1c(-c2cccnc2[C@H](C)OC)c2c3cc(ccc31)-c1cc(O)cc(c1)C[C@H](NC(=O)[C@H](C(C)C)N(C)C(=O)CN(C)C(=O)[C@]1(C)CN1)C(=O)N1CCC[C@H](N1)C(=O)OCC(C)(C)C2 [Compound 257] |  |  |  | < 5000 | 100 to 1000 | 10 to 100
6 | CCn1c(-c2cccnc2[C@H](C)OC)c2c3cc(ccc31)-c1cc(O)cc(c1)C[C@H](NC(=O)[C@H](C(C)C)N(C)C(=O)CN(C)C(=O)[C@@H]1N[C@@H]1C(F)(F)F)C(=O)N1CCC[C@H](N1)C(=O)OCC(C)(C)C2 [Compound 258] |  |  |  | < 5000 | 100 to 1000 | 10 to 100
7 | CCn1c(-c2cccnc2[C@H](C)OC)c2c3cc(ccc31)-c1cc(O)cc(c1)C[C@H](NC(=O)[C@H](C(C)C)N(C)C(=O)CN(C)C(=O)[C@H]1N[C@H]1C(F)(F)F)C(=O)N1CCC[C@H](N1)C(=O)OCC(C)(C)C2 [Compound 259] |  |  |  | < 5000 | 100 to 1000 | 10 to 100
8 | CCn1c(-c2cccnc2[C@H](C)OC)c2c3cc(ccc31)-c1cc(O)cc(c1)C[C@H](NC(=O)[C@H](C(C)C)N(C)C(=O)CN(C)C(=O)[C@@H]1N[C@H]1C(F)(F)F)C(=O)N1CCC[C@H](N1)C(=O)OCC(C)(C)C2 [Compound 260] |  |  |  | < 5000 | 100 to 1000 | 10 to 100
9 | CCn1c(-c2cccnc2[C@H](C)OC)c2c3cc(ccc31)-c1cc(O)cc(c1)C[C@H](NC(=O)[C@H](C(C)C)N(C)C(=O)CN(C)C(=O)[C@H]1N[C@@H]1C(F)(F)F)C(=O)N1CCC[C@H](N1)C(=O)OCC(C)(C)C2 [Compound 261] |  |  |  | < 5000 | 100 to 1000 | < 10
10 | CC[C@H]1N[C@H]1C(=O)N(C)CC(=O)N(C)[C@H](C(=O)N[C@H]1Cc2cc(O)cc(c2)-c2ccc3c(c2)c(c(-c2cccnc2[C@H](C)OC)n3CC)CC(C)(C)COC(=O)[C@@H]2CCCN(N2)C1=O)C(C)C [Compound 262] |  |  |  | < 5000 | 100 to 1000 | 10 to 100
11 | CC[C@@H]1N[C@@H]1C(=O)N(C)CC(=O)N(C)[C@H](C(=O)N[C@H]1Cc2cc(O)cc(c2)-c2ccc3c(c2)c(c(-c2cccnc2[C@H](C)OC)n3CC)CC(C)(C)COC(=O)[C@@H]2CCCN(N2)C1=O)C(C)C [Compound 263] |  |  |  | < 5000 | 100 to 1000 | 10 to 100
12 | CCn1c(-c2cccnc2[C@H](C)OC)c2c3cc(ccc31)-c1cc(O)cc(c1)C[C@H](NC(=O)[C@H](C(C)C)N(C)C(=O)CN(C)C(=O)[C@@H]1N[C@@H]1C(C)C)C(=O)N1CCC[C@H](N1)C(=O)OCC(C)(C)C2 [Compound 264] |  |  |  | < 5000 | 100 to 1000 | 10 to 100
13 | CCn1c(-c2cccnc2[C@H](C)OC)c2c3cc(ccc31)-c1cc(O)cc(c1)C[C@H](NC(=O)[C@H](C(C)C)N(C)C(=O)CN(C)C(=O)[C@H]1N[C@H]1C(C)C)C(=O)N1CCC[C@H](N1)C(=O)OCC(C)(C)C2 [Compound 265] |  |  |  | < 5000 | 100 to 1000 | 10 to 100
14 | CCn1c(-c2cccnc2[C@H](C)OC)c2c3cc(ccc31)-c1cc(O)cc(c1)C[C@H](NC(=O)[C@H](C(C)C)N(C)C(=O)CN(C)C(=O)[C@H]1CN1CCCOC(C)=O)C(=O)N1CCC[C@H](N1)C(=O)OCC(C)(C)C2 (stereo partly drawn) [Compound 266] |  |  |  | < 5000 | 100 to 1000 | < 10
15 | CCn1c(-c2cccnc2[C@H](C)OC)c2c3cc(ccc31)-c1cc(O)cc(c1)C[C@H](NC(=O)[C@H](C(C)C)N(C)C(=O)CN(C)C(=O)[C@H]1CN1CC(=O)N(C)C)C(=O)N1CCC[C@H](N1)C(=O)OCC(C)(C)C2 (stereo partly drawn) [Compound 270] |  |  |  | < 5000 | 100 to 1000 | 10 to 100
16 | CCn1c(-c2cccnc2[C@H](C)OC)c2c3cc(ccc31)-c1cc(O)cc(c1)C[C@H](NC(=O)[C@H](C(C)C)N(C)C(=O)CN(C)C(=O)[C@H]1CN1CCCC#N)C(=O)N1CCC[C@H](N1)C(=O)OCC(C)(C)C2 (stereo partly drawn) [Compound 273] |  |  |  | < 5000 | 100 to 1000 | < 10
17 | CCn1c(-c2cccnc2[C@H](C)OC)c2c3cc(ccc31)-c1cc(O)cc(c1)C[C@H](NC(=O)[C@H](C(C)C)N(C)C(=O)CN(C)C(=O)[C@@H]1CN1CCCC#N)C(=O)N1CCC[C@H](N1)C(=O)OCC(C)(C)C2 (stereo partly drawn) [Compound 274] |  |  |  | < 5000 | 100 to 1000 | < 10
18 | CCn1c(-c2cccnc2[C@H](C)OC)c2c3cc(ccc31)-c1cc(O)cc(c1)C[C@H](NC(=O)[C@H](C(C)C)N(C)C(=O)CN(C)C(=O)[C@@H]1CN1C1COC1)C(=O)N1CCC[C@H](N1)C(=O)OCC(C)(C)C2 (stereo partly drawn) [Compound 276] |  |  |  | < 5000 | 1000 to 10000 | 10 to 100
19 | CCn1c(-c2cccnc2[C@H](C)OC)c2c3cc(ccc31)-c1cc(O)cc(c1)C[C@H](NC(=O)[C@H](C(C)C)N(C)C(=O)CN(C)C(=O)[C@H]1CN1CC1COC1)C(=O)N1CCC[C@H](N1)C(=O)OCC(C)(C)C2 (stereo partly drawn) [Compound 277] |  |  |  | < 5000 | 100 to 1000 | 10 to 100
20 | CCn1c(-c2cccnc2[C@H](C)OC)c2c3cc(ccc31)-c1cc(O)cc(c1)C[C@H](NC(=O)[C@H](C(C)C)N(C)C(=O)CN(C)C(=O)[C@H]1CN1CC1(C)COC1)C(=O)N1CCC[C@H](N1)C(=O)OCC(C)(C)C2 (stereo partly drawn) [Compound 279] |  |  |  | < 5000 | 100 to 1000 | < 10
21 | CCn1c(-c2cccnc2[C@H](C)OC)c2c3cc(ccc31)-c1cc(O)cc(c1)C[C@H](NC(=O)[C@H](C(C)C)N(C)C(=O)CN(C)C(=O)[C@@H]1CN1CC1(C)COC1)C(=O)N1CCC[C@H](N1)C(=O)OCC(C)(C)C2 (stereo partly drawn) [Compound 280] |  |  |  | < 5000 | 1000 to 10000 | < 10
22 | CCn1c(-c2cccnc2[C@H](C)OC)c2c3cc(ccc31)-c1cc(O)cc(c1)C[C@H](NC(=O)[C@H](C(C)C)N(C)C(=O)CN(C)C(=O)[C@@H]1N[C@H]1C1COC1)C(=O)N1CCC[C@H](N1)C(=O)OCC(C)(C)C2 [Compound 283] |  |  |  | < 5000 | 100 to 1000 | 10 to 100
23 | CCn1c(-c2cccnc2[C@H](C)OC)c2c3cc(ccc31)-c1cc(O)cc(c1)C[C@H](NC(=O)[C@H](C(C)C)N(C)C(=O)CN(C)C(=O)[C@H]1C[C@@H]3N[C@@H]3C1)C(=O)N1CCC[C@H](N1)C(=O)OCC(C)(C)C2 [Compound 285] | < 5000 | 10 to 100 | 100 to 1000 |  |  | 
24 | CCn1c(-c2cccnc2[C@H](C)OC)c2c3cc(ccc31)-c1cc(O)cc(c1)C[C@H](NC(=O)[C@H](C(C)C)N(C)C(=O)CN(C)C(=O)[C@@H]1N[C@@H]1C1CCC1)C(=O)N1CCC[C@H](N1)C(=O)OCC(C)(C)C2 [Compound 287] |  |  |  | < 5000 | 100 to 1000 | 10 to 100
25 | CCn1c(-c2cccnc2[C@H](C)OC)c2c3cc(ccc31)-c1cc(O)cc(c1)C[C@H](NC(=O)[C@H](C(C)C)N(C)C(=O)CN(C)C(=O)[C@H]1N[C@H]1C1CCC1)C(=O)N1CCC[C@H](N1)C(=O)OCC(C)(C)C2 [Compound 288] |  |  |  | < 5000 | 100 to 1000 | 10 to 100
26 | CCn1c(-c2cccnc2[C@H](C)OC)c2c3cc(ccc31)-c1csc(n1)C[C@H](NC(=O)[C@H](C(C)C)N(C)C(=O)N1CCC[C@H](N(C)C(=O)[C@@H]3CN3)C1)C(=O)N1CCC[C@H](N1)C(=O)OCC(C)(C)C2 [Compound 292] | < 5000 | 1000 to 10000 | 10 to 100 |  |  | 
27 | CCn1c(-c2cccnc2[C@H](C)OC)c2c3cc(ccc31)-c1csc(n1)C[C@H](NC(=O)[C@H](C(C)C)N(C)C(=O)N(C)CC1CN(C(=O)[C@H]3CN3)C1)C(=O)N1CCC[C@H](N1)C(=O)OCC(C)(C)C2 [Compound 293] | < 5000 | 1000 to 10000 | 10 to 100 |  |  | 
28 | CCn1c(-c2cccnc2[C@H](C)OC)c2c3cc(ccc31)-c1csc(n1)C[C@H](NC(=O)[C@H](C(C)C)N(C)C(=O)N(C)CC1CN(C(=O)[C@@H]3CN3)C1)C(=O)N1CCC[C@H](N1)C(=O)OCC(C)(C)C2 [Compound 294] | < 5000 | 1000 to 10000 | 100 to 1000 |  |  | 
